Results published in patent US20240399000A1, “GADOLINIUM-BASED COMPOUND AND MRI CONTRAST AGENT COMPRISING SAME” (KYUNGPOOK NATIONAL UNIVERSITY INDUSTRY-ACADEMIC COOPERATION …, priority 2021, published 2024).

Tests used:
amyloid beta polymer = amyloid beta polymer (Homo sapiens, UniProt P05067); assay: Amyloid beta polymer targeting ability, MRI phantom experiment (9.4T); format: binding; conditions: incubated with amyloid beta polymer 37° C. 24 hours, washed, 9.4T MR
Procedure: (1) 221.5 uL of HFIP was added to 1 mg of amyloid beta at a concentration of 1 mM, followed by shaking for 1 hour at room temperature using a shaker to remove preaggregation. (2) The amyloid beta from which the preaggregation was removed was dried, and 221.5 uL of DMSO was added thereto to achieve a 1 mM concentration. Using a mixer and sonicator, a suspension thereof was prepared, and 878.5 uL of PBS (1×, pH 7.4) was added thereto to achieve a 0.2 mM concentration. (3) After incubating the suspension at 37° C. for 4 days using a shaker, the polymerized amyloid beta polymer was dispensed by 200 μL. Then, 20 μL of a solution in which each of Gd-DO3A-Pca and the commercial contrast agent (Gadovist®) was dissolved in PBS at 2 mM concentration was added thereto. The incubation was carried out thereon at 37° C. for 24 hours using a shaker. (4) After 24 hours has elapsed, centrifugation was performed thereon to remove the supernatant therefrom. The amyloid beta polymer was washed using PBS. 200 μL of a solution of PBS:DMSO=9:1 was added to a pellet to prepare an MRI phantom sample. As a control, a phantom sample obtained by incubating only the amyloid beta polymer was used. […]

[1] = Measurement of relaxivity (r1, r2) in 3T MRI phantom; format: physicochemical; conditions: tertiary distilled water, 0.0625-1 mM, linear regression, in mM-1 s-1 (unit assumed)
Procedure: The relaxivity (r1, r2) of each of synthesized Gd-DO3A-Pca, and cyclic commercial contrast agents Gadovist® and Dotarem® as comparison groups material was measured. Specifically, a phantom was prepared by diluting the gadolinium complex in tertiary distilled water to five concentrations (0.0625, 0.125, 0.25, 0.5, 1 mM), and then T1 and T2 relaxation times were measured in 3T MRI. Thus, R (Relaxation rate=1/T) of each concentration was calculated and the relaxivity (r1, r2) result of the gadolinium complex was obtained through linear regression analysis (see FIG. 3) and shown in a following Table 1.

amyloid beta polymer, sequence (P05067 672-713 limits assumed): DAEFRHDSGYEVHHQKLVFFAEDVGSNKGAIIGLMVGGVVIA

| relaxivity r1 [1] | relaxivity r2 [1] | Structure (SMILES) | contrast enhancement / signal intensity of phantom vs phantom of only amyloid beta polymer (amyloid beta polymer) |
| --- | --- | --- | --- |
| 3.9 ± 0.1 | 4.8 ± 0.1 | O=C([O-])CN1CCN(CC(=O)[O-])CCN([C@H](CO)[C@H](O)CO)CCN(CC(=O)[O-])CC1.[Gd+3] (racemic) [Gadovist ®] | little difference in contrast enhancement effect |
| 3.4 ± 0.1 | 3.9 ± 0.2 | CNC[C@H](O)[C@@H](O)[C@H](O)[C@H](O)CO.O=C([O-])CN1CCN(CC(=O)[O-])CCN(CC(=O)O)CCN(CC(=O)[O-])CC1.[Gd+3] [Dotarem ®] |  |
